Reference: patent publication US9562053B2, “Benzo-fused heterocyclic derivatives useful as agonists of GPR120” (Janssen Pharmaceutica NV, priority 2013, dated 2017)

Tested on: C57Bl6 mice on a high fat diet
Experiment: GPR120 DIO Mice OGTT Screening
Type: in vivo, mouse
Details: 10 mg/kg dosed 30 min before glucose, glucose AUC −30 to 90 min, change from vehicle, printed as %
Protocol: 18-22 week old, C57Bl6 mice on a high fat diet (60% HFD) for 12-16 weeks (ave. body weight ˜37-41 g) were fasted for 6 hr, with removal of food occurring at 7 am on the morning of the study. The animals were sorted into treatment groups the day before the study by body weight. Animals outside the bounds of ˜30-50 g were left out of the study. The animals had been handled and shammed a total of 5-8 days (1-3 days immediately prior to the study). Glucose (in 1 ml syringes) was drawn up the morning of the study. Test compounds were kept spinning and were only drawn into 1 ml syringes prior to study commencement. Animals were bled via tail snip to determine basal glucose levels prior to dosing of treatments. […]
Animals were moved into the testing room at ˜9-11 am, to yield them time to acclimate. […] All groups were dosed 30 minutes prior to glucose administration at a dose volume of 10 ml/kg (the dose volume was calculated separately for each individual animal). […]
Thirty minutes after the first dose (with test compound) animals were bled again for a second baseline, or T=0, and immediately dosed with glucose (20% solution; TEKNOVA, 250 ml sterile bottle w/catalogue number G0525) via a PO injection. The exact dose volume for glucose was also calculated separately for each individual animal.
Blood glucose was measured at 15, 30, 45, 60, and 90 minutes post-glucose administration via the snipped tail. […]

| Compound | DIO Lowering Glucose AUC (−30 to 90) @10 mg/kg |
| --- | --- |
| Cc1cc2c(F)c(OC(F)(F)F)c(F)c(COc3ccc(CCC(=O)O)c(F)c3F)c2o1 [Compound 75, 3-(4-{[4,6-Difluoro-2-methyl-5-(trifluoromethoxy)-1-benzofuran-7-yl]methoxy}-2,3-difluorophenyl)propanoic acid] | −31% |
| Cc1cc2cc(Cl)c(C)c(COc3ccc(CCC(=O)O)c(C)c3C)c2o1 [Compound 85, 3-{4-[(5-Chloro-2,6-dimethyl-1-benzofuran-7-yl)methoxy]-2,3-dimethylphenyl}propanoic acid] | −37% |
